Test results from the supplement of paper PMC10307832.

Key:
Experiment in all cases: relative viability (nuclei count vs DMSO), 5 days (fraction); higher = more cells survive
[1] = compound: CC1=C(C=C(C=C1)NC(=O)C2=CC(=CC=C2)C(C)(C)C#N)NC3=CC4=C(C=C3)N=CN(C4=O)C [AZ628] + CC(=O)c1c(C)c2cnc(Nc3ccc(N4CCNCC4)cn3)nc2n(C2CCCC2)c1=O [Palbociclib] (partner 0.5 µM)
In short: (§1)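 Cells from lung cancer lines were seeded into 1536-well plates and, one day later, dosed by pin tool. Treatments were either a single drug or a fixed dose of an anchor drug with five library-drug doses (not always all listed) in √10 steps. After 5 days, nuclei were stained in a one-step fixation (final 0.05% Triton X-100, 1% formaldehyde, 1 ug/ml Hoechst) and counted on 4× images, and relative viability is the treated-to-vehicle nuclei ratio, as the median of duplicate plates.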

[2] = compound: C1CC2=C(C1)C=C(C=C2)OC3=NC(=C4C(=N3)N(C=N4)CC5=CC=C(C=C5)C6=CC=CC=C6)N[C@@H](CC7=CC=CC=C7)CO [QS11] + C[C@@H](Oc1cc(-c2cnn(C3CCNCC3)c2)cnc1N)c1c(Cl)ccc(F)c1Cl [Crizotinib] (partner 1 µM)
In short: as §1

[3] = compound: C[As](C)SC[C@H](NC(=O)CC[C@H](N)C(=O)O)C(=O)NCC(=O)O [Darinaparsin] + O=C(CCCCCCC(=O)Nc1ccccc1)NO [Vorinostat] (partner 1 µM)
In short: as §1

| Cell Line | relative viability ([1]; first compound 0.08 µM) | relative viability ([1]; first compound 0.253 µM) | relative viability ([1]; first compound 0.8 µM) | relative viability ([1]; first compound 2.53 µM) | relative viability ([1]; first compound 8 µM) | relative viability ([2]; first compound 0.08 µM) | relative viability ([2]; first compound 0.253 µM) | relative viability ([2]; first compound 0.8 µM) | relative viability ([2]; first compound 2.53 µM) | relative viability ([2]; first compound 8 µM) | relative viability ([3]; first compound 0.08 µM) | relative viability ([3]; first compound 0.8 µM) | relative viability ([3]; first compound 2.53 µM) | relative viability ([3]; first compound 8 µM) |
| --- | --- | --- | --- | --- | --- | --- | --- | --- | --- | --- | --- | --- | --- | --- |
| PC-14 | 0.521 | 0.517 | 0.343 | 0.455 | 0.219 | 0.851 | 0.896 | 0.871 | 0.848 | 0.911 | 0.691 | 0.753 | 0.545 | 0.572 |
| EPLC-272H | 0.32 | 0.345 | 0.292 | 0.317 | 0.25 | 0.861 | 0.962 | 1.03 | 0.835 | 1.13 | 0.324 | 0.42 | 0.422 | 0.4 |
| NCI-H2228 | 0.763 | 0.605 | 0.843 | 0.737 | 0.619 | 0.425 | 0.467 | 0.457 | 0.356 | 0.41 | 0.771 | 0.839 | 0.388 | 0.672 |
| LC-2-ad | 0.473 | 0.51 | 0.424 | 0.468 | 0.373 | 0.468 | 0.479 | 0.398 | 0.443 | 0.495 | 0.805 | 0.762 | 0.657 | 0.829 |
| HOP-62 | 0.49 | 0.473 | 0.491 | 0.492 | 0.314 | 0.853 | 0.863 | 0.846 | 0.703 | 0.45 | 0.765 | 0.654 | 0.522 | 0.819 |
| UMC-11 | 0.405 | 0.299 | 0.347 | 0.324 | 0.292 | 0.724 | 0.616 | 0.653 | 0.679 | 0.686 | 0.339 | 0.314 | 0.384 | 0.308 |
| Calu-6 |  |  |  |  |  | 0.907 | 0.914 | 0.728 | 0.952 | 0.828 |  |  |  |  |
| HCC-44 | 1.01 | 0.942 | 0.96 | 0.958 | 1.15 | 0.868 | 0.729 | 0.577 | 0.688 | 0.519 | 1.24 | 1.12 | 1.05 | 1.09 |
| NCI-H727 | 0.553 |  |  | 0.517 | 0.363 | 0.813 | 0.958 | 0.857 | 0.729 | 0.631 | 1.24 | 1.14 | 1.16 | 1.36 |
| A-427 | 0.475 | 0.446 | 0.497 | 0.475 | 0.427 | 0.779 | 0.885 |  | 0.829 | 0.821 | 0.898 | 0.811 | 0.951 | 0.893 |
| SK-MES-1 | 0.361 | 0.343 | 0.246 | 0.324 | 0.328 | 1.12 | 0.98 | 0.993 | 0.977 | 0.929 | 1.11 | 1.07 | 0.924 | 1.43 |
| HCC-827 | 0.474 | 0.456 | 0.357 | 0.487 | 0.311 | 0.917 | 0.914 | 0.643 | 0.854 | 0.787 | 0.874 | 0.818 | 0.775 | 0.963 |
| EKVX | 0.393 | 0.374 | 0.478 | 0.452 | 0.3 | 1.13 | 1.03 |  | 0.749 | 1.2 | 0.787 | 0.653 | 0.764 | 0.737 |
| SW 900 | 0.595 | 0.542 | 0.537 | 0.555 | 0.497 |  |  |  |  |  | 0.457 |  | 0.635 | 0.596 |
| NCI-H661 | 0.418 | 0.378 | 0.368 | 0.366 | 0.386 | 0.887 | 1.08 | 0.753 | 0.872 | 0.985 | 0.86 | 0.729 | 0.753 | 0.858 |
| NCI-H1975 | 0.504 | 0.485 | 0.548 | 0.534 | 0.233 | 1.08 | 1.03 | 0.853 | 1.16 | 0.817 | 0.875 | 0.728 | 0.741 | 0.854 |
| NCI-H1944 | 0.359 | 0.312 | 0.305 | 0.311 | 0.229 | 1.13 | 1.43 |  | 0.91 | 0.834 | 0.595 | 0.542 | 0.61 | 0.682 |
| SK-LU-1 | 0.284 | 0.286 | 0.349 | 0.314 | 0.288 | 1.1 | 0.822 | 0.63 | 0.544 | 0.785 | 0.742 | 0.784 | 0.591 | 0.702 |
| NCI-H1755 | 0.449 | 0.461 | 0.446 | 0.435 | 0.397 | 0.889 | 0.826 | 0.509 | 0.677 | 0.691 | 0.791 | 0.606 | 0.817 | 1.05 |
| NCI-H650 | 0.366 | 0.425 | 0.475 | 0.545 | 0.374 | 0.722 | 0.726 | 0.753 | 0.55 | 0.607 | 0.335 | 0.408 | 0.427 | 0.423 |
| SW 1573 | 0.409 | 0.312 | 0.275 | 0.291 | 0.173 | 0.802 | 0.796 | 0.817 | 0.629 | 0.876 | 0.837 | 0.754 | 0.653 | 0.738 |
| NCI-H322M | 0.513 | 0.519 | 0.466 | 0.505 | 0.449 | 0.934 | 0.835 | 0.79 | 0.754 | 1 | 1.08 | 0.865 | 0.768 | 0.899 |
| ABC-1 | 0.795 | 0.586 | 0.5 | 0.884 | 0.712 | 0.942 | 1.18 | 0.959 | 0.913 | 0.912 | 1.59 | 1.09 | 1.05 | 1.26 |

| Cell Line | relative viability ([1]; first compound 0.08 µM) | relative viability ([1]; first compound 0.253 µM) | relative viability ([1]; first compound 0.8 µM) | relative viability ([1]; first compound 2.53 µM) | relative viability ([1]; first compound 8 µM) | relative viability ([2]; first compound 0.08 µM) | relative viability ([2]; first compound 0.253 µM) | relative viability ([2]; first compound 0.8 µM) | relative viability ([2]; first compound 2.53 µM) | relative viability ([2]; first compound 8 µM) | relative viability ([3]; first compound 0.08 µM) | relative viability ([3]; first compound 0.8 µM) | relative viability ([3]; first compound 2.53 µM) | relative viability ([3]; first compound 8 µM) |
| --- | --- | --- | --- | --- | --- | --- | --- | --- | --- | --- | --- | --- | --- | --- |
| NCI-H1993 | 0.685 | 0.548 | 0.496 | 0.595 | 0.266 | 0.974 | 0.756 | 0.868 | 0.827 | 0.771 | 0.765 | 0.855 | 0.697 | 0.827 |
| NCI-H1355 | 0.411 | 0.397 | 0.388 | 0.373 | 0.294 | 0.99 | 1.58 | 0.823 | 0.915 | 0.972 | 0.703 | 0.617 | 0.488 | 0.683 |
| PC-3 [JPC-3] | 0.505 | 0.583 | 0.583 | 0.597 | 0.6 | 0.957 | 0.97 | 0.949 | 1.03 | 1.01 | 0.903 | 0.739 | 0.945 | 0.872 |
| NCI-H1651 | 0.544 | 0.536 | 0.529 | 0.562 | 0.625 | 0.888 | 0.95 | 0.79 | 0.903 | 0.899 | 0.523 | 0.558 | 0.58 | 0.571 |
| LK-2 | 0.911 | 0.849 | 0.412 | 0.736 | 0.366 | 0.25 | 0.221 | 0.215 | 0.266 | 0.214 | 0.283 | 0.268 | 0.256 | 0.263 |
| NCI-H2023 | 0.45 | 0.381 | 0.239 | 0.406 | 0.153 | 0.774 | 0.537 | 0.586 | 0.641 | 0.648 | 0.662 | 0.554 | 0.707 | 0.666 |
| NCI-H2342 | 0.544 | 0.513 | 0.562 | 0.511 | 0.537 |  |  |  |  |  | 0.876 | 0.721 | 0.734 | 0.828 |
| COR-L23 | 0.327 | 0.293 | 0.257 | 0.268 | 0.187 | 0.672 | 0.642 | 0.481 | 0.447 | 0.481 | 0.453 | 0.523 | 0.425 | 0.433 |
| NCI-H1734 | 0.367 | 0.301 | 0.299 | 0.319 | 0.225 | 0.65 | 0.656 | 0.658 | 0.555 | 0.619 | 0.934 | 0.752 | 0.773 | 0.746 |
| NCI-H23 | 0.476 | 0.551 | 0.347 | 0.23 | 0.265 | 0.473 | 0.462 | 0.473 | 0.385 | 0.44 | 0.62 | 0.485 | 0.663 | 0.716 |
| NCI-H1703 |  |  |  |  |  | 1.08 | 0.749 | 0.585 | 0.73 | 0.951 |  |  |  |  |
| NCI-H1563 |  |  |  |  |  | 0.836 | 0.937 | 0.925 | 0.86 | 0.814 |  |  |  |  |
| NCI-H1299 |  |  |  |  |  | 0.998 | 0.947 | 0.948 | 0.892 | 0.699 |  |  |  |  |
| NCI-H522 | 0.947 | 0.954 | 0.842 | 1.04 | 0.75 |  |  |  |  |  | 0.85 | 0.909 | 0.798 | 0.905 |
| NCI-H1648 | 0.264 | 0.268 | 0.224 | 0.253 | 0.274 |  |  |  |  |  |  | 0.301 |  | 0.56 |
| NCI-H1792 | 0.66 | 0.632 | 0.52 | 0.558 | 0.388 |  | 1.06 | 0.662 | 1.11 | 1.33 |  |  |  |  |
| A549 |  |  |  |  |  | 0.791 | 0.773 | 0.613 | 0.483 | 0.522 |  |  |  |  |
| NCI-H1793 | 0.35 | 0.403 | 0.305 | 0.266 | 0.255 |  |  |  |  |  | 0.653 | 0.731 |  | 0.911 |
| NCI-H596 |  |  |  |  |  | 1.03 | 0.862 | 0.963 | 0.991 | 1.04 | 0.543 | 0.632 | 0.576 | 0.543 |
| NCI-H1395 | 0.614 | 0.612 | 0.622 | 0.609 | 0.631 |  |  |  |  |  | 0.813 | 0.722 | 0.582 | 0.589 |
| EBC-1 |  |  |  |  |  | 0.19 | 0.203 | 0.206 | 0.224 | 0.238 |  |  |  |  |
| IA-LM |  |  |  |  |  | 0.697 | 0.94 | 0.675 | 0.693 | 0.712 | 0.947 | 1.07 | 1.2 | 0.89 |
